Test results from patent publication US20220313600A1, “FORMULATIONS OF PSMA IMAGING AGENTS” (Clarity Pharmaceuticals Limited, priority 2019, published 2022).

Tests used:
[1] = Stability of the compound of Formula (I) formulated as an aqueous solution; format: physicochemical
Excerpt: One approach to overcome the observed instability may be to add one or more components that are antioxidants and/or stabilizing agents to the formulation, however the inclusion of further components to a formulation introduces potential reactivity issues between the compound of Formula (I) and these added components. For instance, the addition of an antioxidant may in fact react with the compound of Formula (I) thus potentially changing the structure and function of the compound, which is undesirable.

[2] = Degradation of the compound of Formula (I) when the radiolabelling mixture is mixed at raised temperature; format: physicochemical; conditions: temperatures higher than about 40° C., for example 60° C.; mixture with Cu radioisotope and acetate buffer
Excerpt: The solution comprising the mixture of the Cu radioisotope, the compound of Formula (I) and the acetate buffer is then allowed to mix for a time and at a particular temperature in order to allow for complexation of the compound of Formula (I) with the Cu radioisotope. The solution may be mixed using an appropriate apparatus. For example, given the small volumes used, an Eppendorf tube may be an appropriate vessel, such that an Eppendorf Thermomixer may be used to both mix and if required, heat the solution. In an embodiment, the solution is mixed at room temperature. In an embodiment, the solution is mixed at about 40° C. […] While a lower temperature of about 21° C., i.e. room temperature, may be used for mixing, the complexation reaction may not be complete at 5 minutes but is completed by about 15 minutes. […] In an embodiment, the solution is mixed at about 40° C. for about 5 minutes. In an embodiment, the solution is mixed at about 40° C. for about 10 minutes. In another embodiment, the solution is mixed at about 40° C. for about 15 minutes. In another embodiment, the solution is mixed at about 21° C. for about 10 minutes. In another embodiment, the solution is mixed at about 21° C. for about 15 minutes.

**Q.** With O=C(O)CCC(NC(=O)NC(CCCCNC(=O)CCCCCCCNC(=O)C(Cc1ccccc1)NC(=O)C(Cc1ccccc1)NC(=O)CCCC(=O)NC12CNCCNCC(NC(=O)CCCC(=O)NC(Cc3ccccc3)C(=O)NC(Cc3ccccc3)C(=O)NCCCCCCCC(=O)NCCCCC(NC(=O)NC(CCC(=O)O)C(=O)O)C(=O)O)(CNCCNC1)CNCCNC2)C(=O)O)C(=O)O (stereo not drawn) [Formula (I), Sar-bisPSMA] as the compound, how does the “stability of the compound in aqueous solution” value ([1]; formulated as an aqueous solution, no buffer or stabilizing agent) read?
**A.** relatively unstable and prone to oxidation and degradation

**Q.** What about the “stability of the compound in a formulation containing a buffer” value ([1]; formulation containing a buffer, in the absence of a stabilizing agent) of the same compound?
**A.** requisite stability

**Q.** And the “degradation of the compound on heating” value [2]?
**A.** some degradation
